Measurements: the supplement of paper PMC10307832

Tests used:
Assay in all cases: relative viability (nuclei count vs DMSO), 5 days (fraction); higher = more cells survive
BX 795 + Dasatinib = compound: O=C(NCCCNc1nc(Nc2cccc(NC(=O)N3CCCC3)c2)ncc1I)c1cccs1 [BX 795] + Cc1nc(Nc2ncc(C(=O)Nc3c(C)cccc3Cl)s2)cc(N2CCN(CCO)CC2)n1 [Dasatinib] (partner 0.075 µM)
In short: (§1)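 Lung cancer cell lines, seeded in 1536-well plates, were treated the following day by pin tool with a single drug or with five library-drug doses (not always all listed) in √10 steps on top of a fixed anchor-drug dose. Cells were fixed and nuclei stained in one step after 5 days, and nuclei were counted. Relative viability is the nuclei count for treated wells divided by that for vehicle wells, reported as medians of duplicate plates.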

BX 795 + OSI-027 = compound: O=C(NCCCNc1nc(Nc2cccc(NC(=O)N3CCCC3)c2)ncc1I)c1cccs1 [BX 795] + COc1cccc2cc(-c3nc([C@H]4CC[C@H](C(=O)O)CC4)n4ncnc(N)c34)[nH]c12 [OSI-027] (partner 0.5 µM)
In short: as §1

BX 795 + AZD7762 = compound: O=C(NCCCNc1nc(Nc2cccc(NC(=O)N3CCCC3)c2)ncc1I)c1cccs1 [BX 795] + NC(=O)Nc1cc(-c2cccc(F)c2)sc1C(=O)N[C@H]1CCCNC1 [AZD7762] (partner 0.2 µM)
In short: as §1

BX 795 + Linsitinib = compound: O=C(NCCCNc1nc(Nc2cccc(NC(=O)N3CCCC3)c2)ncc1I)c1cccs1 [BX 795] + C[C@]1(O)C[C@@H](c2nc(-c3ccc4ccc(-c5ccccc5)nc4c3)c3c(N)nccn32)C1 [Linsitinib] (partner 1 µM)
In short: as §1

BX 795 + Lapatinib = compound: O=C(NCCCNc1nc(Nc2cccc(NC(=O)N3CCCC3)c2)ncc1I)c1cccs1 [BX 795] + CS(=O)(=O)CCNCc1ccc(-c2ccc3ncnc(Nc4ccc(OCc5cccc(F)c5)c(Cl)c4)c3c2)o1 [Lapatinib] (partner 2 µM)
In short: as §1

Row | Cell Line | relative viability (BX 795 + Dasatinib; first compound 0.04 µM) | relative viability (BX 795 + Dasatinib; first compound 0.1265 µM) | relative viability (BX 795 + Dasatinib; first compound 0.4 µM) | relative viability (BX 795 + Dasatinib; first compound 1.265 µM) | relative viability (BX 795 + OSI-027; first compound 0.04 µM) | relative viability (BX 795 + OSI-027; first compound 0.1265 µM) | relative viability (BX 795 + OSI-027; first compound 0.4 µM) | relative viability (BX 795 + OSI-027; first compound 1.265 µM) | relative viability (BX 795 + AZD7762; first compound 0.04 µM) | relative viability (BX 795 + AZD7762; first compound 0.1265 µM) | relative viability (BX 795 + AZD7762; first compound 0.4 µM) | relative viability (BX 795 + AZD7762; first compound 1.265 µM) | relative viability (BX 795 + Linsitinib; first compound 0.04 µM) | relative viability (BX 795 + Linsitinib; first compound 0.1265 µM) | relative viability (BX 795 + Linsitinib; first compound 0.4 µM) | relative viability (BX 795 + Linsitinib; first compound 1.265 µM) | relative viability (BX 795 + Lapatinib; first compound 0.04 µM) | relative viability (BX 795 + Lapatinib; first compound 0.1265 µM) | relative viability (BX 795 + Lapatinib; first compound 0.4 µM) | relative viability (BX 795 + Lapatinib; first compound 1.265 µM)
1 | LC-2-ad | 0.416 | 0.497 | 0.391 | 0.285 | 0.841 | 0.767 | 0.867 | 0.658 | 0.806 | 0.808 | 0.795 | 0.858 | 0.83 | 0.715 | 0.637 | 0.351 | 0.89 | 0.962 | 0.7 | 0.274
2 | LU99A | 0.78 | 0.571 | 0.472 | 0.364 | 0.306 | 0.296 | 0.287 | 0.257 | 0.344 | 0.355 | 0.347 | 0.24 | 0.552 | 0.631 | 0.467 | 0.225 | 1.05 | 1.03 | 0.714 | 0.665
3 | HCC-78 | 0.462 | 0.379 | 0.364 | 0.392 | 0.363 | 0.369 | 0.393 | 0.363 | 0.583 | 0.631 | 0.606 | 0.594 | 0.624 | 0.657 | 0.534 | 0.554 | 0.93 | 0.585 | 0.604 | 0.732
4 | NCI-H2405 | 0.185 | 0.193 | 0.191 | 0.187 | 0.75 | 0.65 | 0.66 | 0.559 | 0.714 | 0.678 | 0.664 | 0.573 | 0.871 | 0.828 | 0.678 | 0.694 | 1.21 | 1 | 0.792 | 0.733
